This passage reports IC50 results from patent US20230059136A1, “THE COMPOUNDS AND COMPOSITIONS FOR TREATING CONDITIONS ASSOCIATED WITH NLRP ACTIVITY” (Novartis AG, priority 2018, published 2023).

pIC50: −log10 of the molar value. A value given as a limit tells only on which side of the number the result lay.

For assay [1], the system named is IL-1β production in PMA-differentiated THP-1 cells. Nature of the assay: IL-1β production in PMA-differentiated THP-1 cells stimulated with gramicidin (hTHP-1 assay containing 2% fetal bovine serum). Type of assay: cell-based, human. The following applies: hTHP-1 assay containing 2% fetal bovine serum. A digest of the protocol: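 IL-1β release was read by HTRF on supernatants of 50,000 PMA-primed (20 ng/ml, 16-18 h) THP-1 cells/well in 2% FBS medium. Cells saw compound for 1 h (11-point titration from 100 μM, 0.37% DMSO) before a 2 h gramicidin (5 μM) challenge.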

Assay [2] has the same test system. Nature of the assay: hTHP-1 assay containing 10% fetal bovine serum (IL-1β production, gramicidin-stimulated THP-1 cells). The class given is cell-based, human. How it is done:
Activity key: <0.008 μM=“++++++”; ≥0.008 and <0.04 μM=“+++++”; ≥0.04 and <0.2 μM=“++++”; ≥0.2 and <1 μM=“+++”; ≥1 and <5 μM=“++”; ≥5 and <30 μM=“+”. ND=not determined.

Where [3] appears, read: read-out: hTHP-1 IC50 in 2% FBS, average IC50.
[4] abbreviates: read-out: hTHP-1 IC50 in 10% FBS, average IC50.
Where [5] appears, read: Homo sapiens, THP-1, read-out: hTHP-1 IC50 in 2% FBS, average IC50.
Where [6] appears, read: Homo sapiens, THP-1, read-out: hTHP-1 IC50 in 10% FBS, average IC50.

Usually pIC50 stands for −log10 of the IC50, conventionally taken in molar units. Consider `CC(C)c1cc2c(c(C(C)C)c1CC(=O)N=S(N)(=O)c1nn(CCO)cc1F)OC(F)(F)O2` (racemic) [Example 406, (R) and (S)—N-(amino(4-fluoro-1-(2-hydroxyethyl)-1H-pyrazol-3-yl)(oxo)-λ^6-sulfaneylidene)-2-(2,2-difluoro-4,6-diisopropylbenzo[d][1,3]dioxol-5-yl)acetamide], for which the negative logarithm of the IC50 (pIC50) in assay [1] (setting [3]) was 4.52 to 5.30; in assay [2] (setting [4]) it was 5.30 to 6.00.
Taken in the same sequence, the figures for `CC(C)c1c(CC(=O)N=S(N)(=O)c2sc(C(C)(C)O)cc2F)c2c(c3c1OC(F)(F)O3)CCC2` (racemic) [Example 407, (R) and (S)—N-(amino(3-fluoro-5-(2-hydroxypropan-2-yl)thiophen-2-yl)(oxo)-λ^6-sulfaneylidene)-2-(2,2-difluoro-4-isopropyl-7,8-dihydro-6H-indeno[4,5-d][1,3]dioxol-5-yl)acetamide] were 4.52 to 5.30 and 4.52 to 5.30.
For the compound `CC(C)c1c(CC(=O)N=S(N)(=O)c2sc(C(C)(C)O)cc2F)c2c(c3c1OC(F)(F)O3)CCC2` (racemic) [Example 408, (R) and (S)—N-(amino(3-fluoro-5-(2-hydroxypropan-2-yl)thiophen-2-yl)(oxo)-λ^6-sulfaneylidene)-2-(2,2-difluoro-4-isopropyl-7,8-dihydro-6H-indeno[4,5-d][1,3]dioxol-5-yl)acetamide], the negative-log IC50 (pIC50) in assay [1] (setting [3]) and in assay [2] (setting [4]) was 6.00 to 6.70 throughout.
For `CC(C)c1c2c(c3c(c1CC(=O)N=S(N)(=O)c1sc(C(C)(C)O)cc1F)CCC3)COC2` (single isomer, unassigned) [Example 411, (R) or (S)-N-(amino(3-fluoro-5-(2-hydroxypropan-2-yl)thiophen-2-yl)(oxo)-λ^6-sulfaneylidene)-2-(4-isopropyl-3,6,7,8-tetrahydro-1H-indeno[4,5-c]furan-5-yl)acetamide], the negative-log IC50 (pIC50) in assay [1] (setting [5]) and in assay [2] (setting [6]) was 6.00 to 6.70 each time.
Turning to `CC(C)c1c2c(c3c(c1CC(=O)N=S(N)(=O)c1sc(C(C)(C)O)cc1F)CCC3)COC2` (single isomer, unassigned) [Example 412, (S) or (R)-N-(amino(3-fluoro-5-(2-hydroxypropan-2-yl)thiophen-2-yl)(oxo)-λ^6-sulfaneylidene)-2-(4-isopropyl-3,6,7,8-tetrahydro-1H-indeno[4,5-c]furan-5-yl)acetamide], the pIC50 in assay [1] (Homo sapiens, THP-1, read-out: hTHP-1 IC50 in 2% FBS, average IC50, given as numeric bound) is < 4.52; in assay [2] (Homo sapiens, THP-1, read-out: hTHP-1 IC50 in 10% FBS, average IC50, given as numeric bound), < 4.52.
With `CC(C)c1cccc(C(C)C)c1CC(=O)N=S(N)(=O)c1ccc(CCNC(=O)CCCc2ccccc2)cc1` (stereo not drawn) [Compound 409], the pIC50 was 5.30 to 6.00 in assay [1] (setting [5]) and 6.00 to 6.70 in assay [2] (setting [6]).
